# Tested on: Rattus norvegicus
# Test: In vivo potency determined for AII-induced pressor response in normotensive rats, iv
# Format: functional
# Settings: read-out: ID50 (the source's name)
row,Structure (SMILES),ED50 [mg/kg]
1,CCCc1cc(N)c([N+](=O)[O-])c(=O)n1Cc1ccc(-c2ccccc2-c2nn[nH]n2)cc1,4.8

# Tested on: Rattus norvegicus
# Test: In vivo potency determined for AII-induced pressor response in normotensive rats, iv administration
# Format: functional
# Settings: read-out: ID50 (the source's name)
row,Structure (SMILES),ED50 [mg/kg]
1,CCCc1cc(CO)cc(=O)n1Cc1ccc(-c2ccccc2-c2nn[nH]n2)cc1,0.3
2,CCc1cc(O)cc(=O)n1Cc1ccc(-c2ccccc2-c2nn[nH]n2)cc1,0.084
3,CCCc1cc(C(=O)NCCN(C)C)cc(=O)n1Cc1ccc(-c2ccccc2-c2nn[nH]n2)cc1,0.18
4,CCCCc1cc(O)c([N+](=O)[O-])c(=O)n1Cc1ccc(-c2ccccc2-c2nn[nH]n2)cc1,0.58
5,CCCc1cc(OC)cc(=O)n1Cc1ccc(-c2ccccc2-c2nn[nH]n2)cc1,0.24
6,CCCc1cccc(=O)n1Cc1ccc(-c2ccccc2-c2nn[nH]n2)cc1,1.1
7,CCCc1cc(C(=O)O)cc(=O)n1Cc1ccc(-c2ccccc2-c2nn[nH]n2)cc1,0.078
8,CCCCc1nc(Cl)c(CO)n1Cc1ccc(-c2ccccc2-c2nnn[n-]2)cc1.[K+] [LOSARTAN POTASSIUM],1.2
9,CCCc1cc(O)cc(=O)n1Cc1ccc(-c2ccccc2-c2nn[nH]n2)cc1,0.048
10,CCCc1cc(S)cc(=O)n1Cc1ccc(-c2ccccc2-c2nn[nH]n2)cc1,0.017
11,CCCc1cc(OCc2cccnc2)cc(=O)n1Cc1ccc(-c2ccccc2-c2nn[nH]n2)cc1,0.72
12,CCCCc1cc(O)cc(=O)n1Cc1ccc(-c2ccccc2-c2nn[nH]n2)cc1,0.38
13,CCCc1cc(SC)cc(=O)n1Cc1ccc(-c2ccccc2-c2nn[nH]n2)cc1,0.28
14,CCCc1cc(O)c(C)c(=O)n1Cc1ccc(-c2ccccc2-c2nn[nH]n2)cc1,0.027

# Tested on: Rattus norvegicus
# Test: Tested for lowering of Blood pressure in spontaneous hypertensive rat at a dose of 10mg/kg, po at 6 hr.
# Format: functional
# Settings: not given
row,Structure (SMILES),BP decrease [%]
1,CCCCc1cc(O)cc(=O)n1Cc1ccc(-c2ccccc2-c2nn[nH]n2)cc1,36

# From ChEMBL document CHEMBL1127229, “New non-peptide angiotensin II receptor antagonists. 1: structure - activity relationships of a series of a series of 2(1H)-pyridinones” (1994)
